Data on six molecules can be found in article PMC6651611 (Slas Discovery, 2019).

The target in one data set is CYP130A1 (CYP130A1-BM3R) (Mycobacterium tuberculosis, UniProt P9WPN5). The data set is described as follows: biochemical.
The next data set addresses CYP125A1 (Mycobacterium tuberculosis, UniProt P9WPP1). It is filed as biochemical.
For another data set, the target named is CYP124A1 (Mycobacterium tuberculosis, UniProt P9WPP3). It is filed as biochemical.
The subject of data set [1] is O=C(O)[C@H]1CSC(c2nc3ccc(OCc4ccccc4)cc3s2)=N1. The data set is described as follows: purified protein.
The test system of data set [2] is COc1ccc2nc(C3=N[C@@H](C(=O)OCCO)CS3)sc2c1. The data set is described as follows: purified protein.

The term IC50 denotes the concentration needed to halve the response being measured. The molecule `CC(=O)N1CCN(c2ccc(OC[C@H]3CO[C@](Cn4ccnc4)(c4ccc(Cl)cc4Cl)O3)cc2)CC1` (racemic) [ketoconazole] showed a half-maximal inhibitory concentration (IC50) against CYP130A1 (CYP130A1-BM3R) of 100 ± 20 nM.
As to `COc1ccc2nc(C3=N[C@@H](C(=O)OCCO)CS3)sc2c1` [Luciferin-ME EGE], at CYP125A1, the “luminescence turnover assay with purified enzyme (S/B 7.8)” value is “Luciferin-ME EGE was the only pro-luciferin substrate metabolized by these three cholesterol-metabolizing Mtb CYPs”. Besides, at CYP124A1, the “luminescence turnover assay with purified enzyme (S/B 7.3)” value was “Luciferin-ME EGE was the only pro-luciferin substrate metabolized by these three cholesterol-metabolizing Mtb CYPs”.
Turning to `Clc1ccc(COC(Cn2ccnc2)c2ccc(Cl)cc2Cl)cc1` (stereo not shown) [econazole], the IC50 on CYP130A1 (CYP130A1-BM3R) is 50 ± 10 nM.
In turn, `Clc1ccc(COC(Cn2ccnc2)c2ccc(Cl)cc2Cl)c(Cl)c1` (stereo not shown) [miconazole] gave a half-maximal inhibitory concentration (IC50) on CYP130A1 (CYP130A1-BM3R) of 17 ± 3 nM.
For orientation: Km means the concentration of substrate that gives half-maximal velocity. For orientation: kcat means the number of substrate molecules converted per active site and unit of time at saturation. Usually kcat/Km stands for the second-order rate constant that governs catalysis at low substrate concentration. Consider “CYP130A1 (CYP130A1-BM3R) (Mycobacterium tuberculosis H37Rv)”, for which, in data set [1], the Km is on record as 37 ± 2.4 µM, the catalytic constant (kcat) worked out at 0.000667 ± 1.33e-05 s⁻¹ and the kcat/Km was 18.3 M⁻¹ s⁻¹.
In the case of “CYP142A1 (Mycobacterium tuberculosis H37Rv)”, in data set [2], the Michaelis constant (Km) is listed as 270 ± 22 µM and the catalytic efficiency (kcat/Km) was 0.00333 M⁻¹ s⁻¹.
